Where two headings read alike, the source gives them in different places.
How the values were obtained:
[1] = test system: phospho-Akt, HER3, RTKs and intracellular kinases in HCC1937 cells; test: phospho-RTK / phospho-kinase arrays and Western blotting in HCC1937 cells; assay type: cell-based, human
Method: FIG. 1A. siRNA screen to identify kinases that potentially compensate for PI3K inhibition. HCC1937 breast cancer cells were treated with the indicated amounts of compound A for 6, 24, or 72 hours in medium containing 2.5% FBS. Cell lysates analyzed by immunoblotting with the indicated antibodies.
(§1) FIGS. 3A and 3B. PI3K inhibition induces phosphorylation of RTKs and intracellular kinases. HCC1937 cells were treated with 10 μM compound A in medium containing 2.5% FBS for 0, 8, 24, or 48 hours. Media and drugs were replenished every 24 hours. Lysates were used to probe phospho-RTK arrays (FIG. 3A) or phospho-kinase arrays (FIG. 3B) (R&D systems). Corner spots are positive controls. Candidate kinases from the siRNA screen that are also phosphorylated upon treatment with compound A are shown in red.
as §1, with “4A” for “3A”, “4B.” for “3B. PI3K inhibition induces phosphorylation of RTKs and intracellular kinases.”, “(A)” for “(FIG. 3A)”, “(B)” for “(FIG. 3B)”
The purpose of the present study is to identify kinases and kinase-regulated signaling pathways that compensate for PI3K inhibition in human breast cancer cells. To this end, siRNA screen is employed targeting 779 human kinases in order to determine if downregulation of specific kinases increases the sensitivity of HCC1937 human breast cancer cells to the PI3K inhibitor compound A, which a compound of formula I and of Table 1. […] Following reverse transfection with the siRNA library, cells are treated with either DMSO or 10 μM compound A for 72 hours in a medium containing 2.5% fetal bovine serum (FIGS. 1A and 2) and the alamar blue assay is used to measure cell viability FIG. 1B. […] HCC1937 cells were treated with 10 μM compound A in medium containing 2.5% FBS for 0, 2, 8, or 24 hours. RNA was isolated with Trizol and purified using the RNeasy column (Qiagen). Gene expression from three independent experiments was measured using the Gene titan 3′ microarray. *, p<0.05; **, p<0.01 versus 0 hours, as shown in FIG. 5.

[2] = test system: human breast cancer cell lines; test: three-dimensional (3D) growth in Matrigel; assay type: cell-based; details: 3D Matrigel, 2.5% FBS, read-out: IC50 in cells tested in 3D
Method: Cells were seeded in 8-well chamber slides in growth-factor reduced Matrigel (BD Biosciences, San Jose Calif., USA)±compound A according to published methods. Fresh medium and drugs were replenished every third day. Colonies were photographed with an inverted light microscope with an ocular magnification of 10 times on the days recited in figures herein.
A panel of breast cancer cell lines with dysregulated PI3K activity was treated with increasing doses of compound A under two- and three-dimensional (2D and 3D) growth conditions. All experiments were conducted in 2.5% FBS-containing media, unless otherwise stated. […] This was further confirmed by immunoblot analysis of biomarkers of cell death and G1-S cell cycle transition in lysates from cells treated for 24 hours with compound A as shown in FIG. 10B.

[3] = test system: subcutaneous A-549 human lung xenografts; test: antitumor activity in A549 xenografts; assay type: in vivo, Swiss nude mice; details: for activity rating: compound A at 30 mg/kg PO daily (text), 30 mg/kg
Text: Control groups were left untreated.
Animal body weights included the tumor weights.

[4] = Method: The lung cancer cell line A549 was selected for this study. […] Lung A549 cells were implanted s.c. in female Swiss nude mice using standard techniques. […] Control groups were left untreated. […]
For the evaluation of anti-tumor activity of conjugates, animals were weighed daily and tumors were measured twice weekly by caliper. A dosage producing a 20% weight loss at nadir (mean of group) or a 15% weight loss (mean of group) three successive times or drug deaths, was considered an excessively toxic dosage. Animal body weights included the tumor weights. Tumor weights were calculated using the formula mass (mg)=[length (mm)×width (mm)2]/2. The primary efficacy end points are ΔT/ΔT, percent median regression, partial and complete regressions (PR and CR), and Tumor free survivors (TFS). Changes in tumor volume for each treated (T) and control (C) were calculated for each tumor by subtracting the tumor volume on the day of first treatment (staging day) from the tumor volume on the specified observation day. The median ΔT was calculated for the treated group, and the median ΔT was calculated for the control group. Then the ratio ΔT/ΔT was calculated and expressed as a percentage: ΔT/ΔT=(delta T/delta C)×100. A dose is considered therapeutically active when ΔT/ΔT is lower than 40% and very active when ΔT/ΔT is lower than 10%. […] Percent tumor regression is defined as the percent of tumor volume decrease in the treated group at a specified observation day compared to its volume on the first day of first treatment. At a specific time point and for each animal, percent regression is calculated. The median percent regression is then calculated for the group. % regression (at t)=[volumet0−volumet/volument0]×100. Partial regression (PR): Regressions are defined as partial if the tumor volume decreases to 50% of the tumor volume at the start of treatment. Complete regression (CR): Complete regression is achieved when tumor volume=0 mm^3 (CR is considered when tumor volume cannot be recorded). TFS: Tumor free is defined as the animals with undetectable tumors at the end of the study (>100 days post last treatment).

[5] = test system: HER3 expression in A549 human lung xenografts; test: HER3 modulation in A549 tumors; assay type: in vivo, Swiss nude mice
Method: Briefly, mice bearing measurable lung A549 tumors implanted SC have been left untreated or treated either by MM121 as a single agent (at dose of 5 mg/kg or 30 mg/kg, one administration) or by compound A as a single agent (at dose of 30 mg/kg or 100 mg/kg, daily administrations) or by a combination of both (at 30 mg/kg for MM121 and 100 mg/kg for compound A). The HER3 expression level in xenografted tumors has been followed for up to 96 hours.

[6] = Compound A PO 5 (160) mg/kg Q1Dx32
[7] = Compound A PO 100 (3200) mg/kg Q1Dx32
[8] = Compound A PO 100 (3200) mg/kg Q1Dx32, listed as compound A
[9] = compound A at 30 mg/kg PO daily

COc1ccc(Cl)c(Nc2nc3ccccc3nc2NS(=O)(=O)c2cccc(NC(=O)C(C)(C)N)c2)c1 [Compound A]
phospho-Akt and HER3 by Western blotting ([1]; HCC1937): decreases phospho-Akt at S473 and T308 and increases phospho- and total HER3
phosphorylation of MAP kinases ([1]; HCC1937): increases phosphorylation of the MAP kinases ERK, JNK, and p38 MAPK
phospho-Akt ([1]; HCC1937, 10 μM, 48 hours): phosphorylation at S473 is partially restored
phospho-Akt ([1]; HCC1937, 10 μM, eight and 24 hour treatments): suppressed phospho-Akt at both S473 and T308
expression and/or phosphorylation of RTKs and intracellular kinases ([1]; HCC1937, 10 μM, within 8-48 hours): increased expression and/or phosphorylation of many RTKs and intracellular kinases
IC50 [2]: ≤ 6 µM
Biological response at day 68 [3, 6]: Very
Median ΔT/ΔC in % day 68 [3, 6]: 5%
Biological response at day 68 [3, 7]: highly active
Median % of regression on day 68 [3, 7]: 15%
Median ΔT/ΔC in % day 68 [3, 7]: −4%
Biological response at day 68 [3, 8]: high activity
ΔT/ΔC (treated vs control tumor volume change) [3, 9]: 5%
activity rating [3]: very active
activity rating ([3]; listed as compound A): high activity
Average body weight change in % per mouse at nadir [4, 6]: −7.34%
Drug death (Day of death) [4, 6]: 0/7
day of nadir [4, 6]: 65 days
Average body weight change in % per mouse at nadir [4, 7]: −10.25%
Drug death (Day of death) [4, 7]: 0/7
day of nadir [4, 7]: 65 days
Average body weight change in % per mouse at nadir [4, 8]: −10.3%
body weight loss at nadir [4, 9]: −7.3%
HER3 expression, Change vs Control (%) ([5]; Compound A 30 mg/kg PO: Q1Dx1, 4 h): −3%
HER3 expression, Change vs Control (%) ([5]; Compound A 30 mg/kg PO: Q1Dx1, 24 h): 12%
HER3 expression, Change vs Control (%) ([5]; Compound A 30 mg/kg PO: Q1Dx2, 24 h): 23%
HER3 expression, Change vs Control (%) ([5]; Compound A 30 mg/kg PO: Q1Dx3, 24 h): 27%
HER3 expression, Change vs Control (%) ([5]; Compound A 100 mg/kg PO: Q1Dx1, 4 h): 10%
HER3 expression, Change vs Control (%) ([5]; Compound A 100 mg/kg PO: Q1Dx1, 24 h): 19%
HER3 expression, Change vs Control (%) ([5]; Compound A 100 mg/kg PO: Q1Dx2, 24 h): 45%
HER3 expression, Change vs Control (%) ([5]; Compound A 100 mg/kg PO: Q1Dx3, 24 h): 37%
HER3 expression in A549 lung model (summary of Table 5) ([5]; up to 96 hours): slight increase of HER3 expression
